Non-standard residues stand in square brackets, D forms with d. Residues, ends and D or L forms follow the SMILES beside them. *: point of attachment. Nle = CCCC[C@H](N)C(=O)O; Cbz = O=C(OCc1ccccc1)*
Experiments:
[1] = system: rat hypercalcemia induced by PTHrp(1-34); test: Rat hypercalcemia induced by PTHrp(1-34), oral administration; type: in vivo, male Wistar rats; details: 4 hours before PTHrp(1-34) 5 nmole/kg i.v., blood 1 hour after PTHrp, n = 5
Method: To male Wistar rats aged 5 weeks (70 - 90 g, 5 animals in each group), 40 mg/kg body weight of the compounds listed in Table 2 and 40 and 80 mg/kg body weight of the compounds listed in Table 3 were orally administered. After 4 hours, 5 nmole/kg of PTHrp(1-34) was intravenously injected into the animals.
One hour after the administration of PTHrp(1-34), a blood sample was collected from each rat and the blood calcium concentration was determined by the octocresolphthalein complexone method.

[2] = system: secondary hyperparathyroidism; test: Secondary hyperparathyroidism, calcium-deficient diet model; type: in vivo, male Wistar rats; details: 40 mg/kg oral after 5 days calcium-deficient diet; blood 5 hours after administration
Method: In a calcium-deficient diet model system of rats, parathyroid hormone is released in order to maintain the blood calcium concentration within a normal range. In other words, the parathyroid hormone induces bone resorption so that the blood calcium concentration is maintained within a normal range.
Taking advantage of the above-mentioned model system, male Wistar rats aged 5 weeks (70 - 90 g, 5 animals in each group) were fed on calcium-deficient diet for 5 days. After fasting overnight, 40 mg/kg body weight of the compounds listed in Table 1 were orally administered to the rats. 5 hours after the administration of the drugs, the blood calcium concentration of each animal was determined by the same method as the one employed in Example 1.

[3] = Acute toxicity, intraperitoneal; type: in vivo; details: 2 g/kg intraperitoneally, rats
[4] = system: rat hypercalcemia induced by PTHrp(1-34); test: Rat hypercalcemia induced by PTHrp(1-34), intraperitoneal administration; type: in vivo, male Wistar rats; details: 10 mg/kg intraperitoneal; for Ca conc. ± standard error: blood 1 hour after PTHrp, n = 5
Method: To male Wistar rats aged 5 weeks (70 - 90 g, 5 animals in each group), 10 mg/kg body weight of Compound 1 was intraperitoneally administered 0.5, 1, 2 and 4 hours before the administration of PTHrp(1-34). PTHrp(1-34) was intravenously injected into the animals at the level of 5 nmole/kg. One hour after the administration of PTHrp(1-34), a blood sample was collected from each animal and the blood calcium concentration was determined by the same method as the one employed in Example 1.

SMILES: CSCC[C@@H](C=O)NC(=O)[C@H](CC(C)C)NC(=O)[C@H](CC(C)C)NC(C)=O [Compound 21, N-Acetyl-leucyl-leucyl-methioninal] (Ac-Leu-Leu-Met-aldehyde)
- Ca conc. ± standard error ([1]; 40 mg/kg oral): 9.78 ± 0.08 mg/dL
- Ca conc. ± standard error ([1]; 80 mg/kg oral): 9.61 ± 0.13 mg/dL

SMILES: CCCCC(C=O)NC(=O)C(CC(C)C)NC(=O)CCCc1ccccc1 (centres unmarked) [Compound 2]
- blood calcium concentration (result in words) [2]: significantly reduced

SMILES: CCCCC(C=O)NC(=O)C(CC(C)C)NC(=O)OCc1ccc(Cl)cc1 (centres unmarked) [Compound 8]
- blood calcium concentration (result in words) [2]: significantly reduced

SMILES: CCCCC(C=O)NC(=O)C(CC(C)C)NC(=O)OC(C)(C)C (centres unmarked) [Compound 6]
- blood calcium concentration (result in words) [2]: significantly reduced

SMILES: CCCCC(C=O)NC(=O)C(CC(C)C)NP(=S)(c1ccccc1)c1ccccc1 (centres unmarked) [Compound 15]
- blood calcium concentration (result in words) [2]: significantly reduced

SMILES: CCCC[C@@H](C=O)NC(=O)[C@H](CC(C)C)NC(=O)OCc1ccccc1 [Compound 1, N-benzyloxycarbonyl-leucyl-norleucinal]
- acute toxicity (general conditions, mortality) [3]: neither any change in the general conditions of the animals nor any mortal case was observed
- suppression of the increase in the blood calcium concentration (result in words) ([4]; 0.5 to 4 hours before PTHrp(1-34)): continuously effected significant suppression
- Ca conc. ± standard error ([4]; 0.5 hr before PTHrp(1-34)): 11.74 ± 0.07 mg/dL
- Ca conc. ± standard error ([4]; 1 hr before PTHrp(1-34)): 11.28 ± 0.07 mg/dL
- Ca conc. ± standard error ([4]; 2 hr before PTHrp(1-34)): 11.56 ± 0.09 mg/dL
- Ca conc. ± standard error ([4]; 4 hr before PTHrp(1-34)): 11.91 ± 0.09 mg/dL

SMILES: CCCC[C@@H](C=O)NC(=O)[C@H](CC(C)C)NC(=O)[C@H](CC(C)C)NC(C)=O [Compound 22, N-Acetyl-leucyl-leucyl-norleucinal] (Ac-Leu-Leu-[Nle]-aldehyde)
- Ca conc. ± standard error ([1]; 40 mg/kg oral): 9.49 ± 0.20 mg/dL
- Ca conc. ± standard error ([1]; 80 mg/kg oral): 9.52 ± 0.11 mg/dL

SMILES: CCCC[C@@H](C=O)NC(=O)[C@H](CC(C)C)NC(=O)[C@H](CC(C)C)NC(=O)OCc1ccccc1 [Compound 23, N-Benzyloxycarbonyl-leucyl-leucyl-norleucinal] (Cbz-Leu-Leu-[Nle]-aldehyde)
- Ca conc. ± standard error ([1]; 40 mg/kg oral): 9.53 ± 0.08 mg/dL
- Ca conc. ± standard error ([1]; 80 mg/kg oral): 9.28 ± 0.66 mg/dL

SMILES: CCCCC(C=O)NC(=O)C(CC(C)C)NC(=O)OCC(Cl)(Cl)Cl (centres unmarked) [Compound 11]
- blood calcium concentration (result in words) [2]: significantly reduced

SMILES: CCCCC(C=O)NC(=O)C(CC(C)C)NC(=O)OCc1ccc(OC)cc1 (centres unmarked) [Compound 9]
- blood calcium concentration (result in words) [2]: significantly reduced

SMILES: CC(C)CC(NC(=O)C1OC1C(=O)O)C(=O)NCCCCNC(=N)N [Compound E-64, L-trans-epoxysuccinyl-L-leucineamide-(e-guanide)-butane, reference compound]
- Ca conc. ± standard error ([1]; 40 mg/kg oral): 9.69 ± 0.21 mg/dL
- Ca conc. ± standard error ([1]; 80 mg/kg oral): 9.61 ± 0.12 mg/dL

From patent publication EP0504938A2, “Prophylactic and therapeutic agent for bone diseases comprising di- or tripeptide derivative as active ingredient” (SUNTORY LIMITED, priority 1991, dated 1992)
